Target: T1, pMON8252 encoded petunia EPSPS variant, glycine (101) to alanine and alanine (192) to threonine (Petunia hybrida, UniProt P11043, A264T/G173A)
T1 construct: alanine 192 in the mature petunia EPSP synthase; made in house; host or cells: E. coli SR481 (aroA-)
Assay: EPSP synthase kinetic constants (appKm PEP, appKi glyphosate)
Assay type: biochemical
Settings: extract of SR481 cells with pMON8252
Experimental: The balance of the #742 preculture (~750 μl) was used to inoculate 2 ml of 2XYT medium containing 50 μg/ml carbenicillin and was shaken overnight at 37° C. to reach saturation. Plasmid DNA was isolated from an aliquot of the saturated culture using an alkaline lysis procedure. The plasmid was designated pMON8252. An aliquot of the pMON8252 plasmid was used to transform the E. coli host SR481 (described above) and reselected on MOPS medium containing 10 mM glyphosate and 50 μg/ml carbenicillin. A single glyphosate resistant colony of pMON8252 was picked off the selection plate and used to inoculate 3 ml of 2XY1 bacterial medium containing 50 μg/ml carbenicillin. The culture was then aerated on a rotating wheel at 37° C. until saturated and then used to inoculate a larger 250 ml culture. The large culture was grown to saturation by continuously shaking it overnight at 37° C. in a water bath. The bacterial cells were lysed and the extracts were assayed for EPSPS activity.
Specifically, the bacterial cell paste was washed twice with 0.9% saline, suspended in buffer (100 mM Tris-HCl, 5 mM benzamidine HCl) and passed twice through a French Pressure Cell at 1000 psi. The cell extract was separated from the cells by centrifuging at 15,000×gravity for 10 minutes at 5° C. It was desalted using Sephadex G-50 (Pharmacia, Piscataway, N.J.). The desalted extract was assayed for EPSP synthase activity as follows.
Kinetic constants (appKm PEP and appKi glyphosate) were determined for EPSP synthase as described below. Substrate kinetic parameters were determined at pH 7.9 in 50 mM HEPES (N-[2-hydroxyethyl]piperazine-N'-[2-ethanesulfonic acid]) buffer in the presence of 2 mM S3P and varying amounts of ^14 C-PEP (10 μM-400 μM), for 2.0 minutes at 25° C. Reactions were quenched with 100 mM NaAcetate in ethanol, pH 4.5, centrifuged and analyzed for product EPSP formation by HPLC with flow radioactivity detection. HPLC conditions were 0.35M KPi, pH 6.5, on a Synchropak AX100 column at 1.0 ml/minute.

T1 sequence (P11043 73-516 G173A/A264T): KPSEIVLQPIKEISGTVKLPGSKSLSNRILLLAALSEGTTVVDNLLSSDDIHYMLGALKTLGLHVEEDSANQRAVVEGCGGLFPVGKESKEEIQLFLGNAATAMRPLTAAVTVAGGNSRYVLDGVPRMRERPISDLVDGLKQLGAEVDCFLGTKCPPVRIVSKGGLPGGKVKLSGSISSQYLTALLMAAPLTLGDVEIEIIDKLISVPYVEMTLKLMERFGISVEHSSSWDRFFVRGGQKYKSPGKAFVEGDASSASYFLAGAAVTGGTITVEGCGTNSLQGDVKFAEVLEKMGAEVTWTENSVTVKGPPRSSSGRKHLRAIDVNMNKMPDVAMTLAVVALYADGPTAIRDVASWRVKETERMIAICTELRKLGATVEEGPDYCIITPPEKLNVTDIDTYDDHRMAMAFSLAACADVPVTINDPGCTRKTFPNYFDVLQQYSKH

C=C(OP(=O)(O)O)C(=O)O [PEP, phosphoenolpyruvate]
Km for PEP: 54 µM

Reference: patent US5866775A, “Glyphosate-tolerant 5-enolpyruvyl-3-phosphoshikimate synthases” (Monsanto Company, priority 1990, dated 1999)
